Columns and labels:
5-Lipoxygenase [1] = target: T1, 5-Lipoxygenase (Rattus norvegicus, UniProt P12527); experiment: 5-Lipoxygenase activity (5-HETE) in RBL-1 cell extracts, 10,000 x g supernatant; type: biochemical; settings: Table 8
T1 construct: The activities of these enzymes in extracts of RBL-1 cells were assayed; host or cells: RBL-1
T1 sequence (P12527 1-673): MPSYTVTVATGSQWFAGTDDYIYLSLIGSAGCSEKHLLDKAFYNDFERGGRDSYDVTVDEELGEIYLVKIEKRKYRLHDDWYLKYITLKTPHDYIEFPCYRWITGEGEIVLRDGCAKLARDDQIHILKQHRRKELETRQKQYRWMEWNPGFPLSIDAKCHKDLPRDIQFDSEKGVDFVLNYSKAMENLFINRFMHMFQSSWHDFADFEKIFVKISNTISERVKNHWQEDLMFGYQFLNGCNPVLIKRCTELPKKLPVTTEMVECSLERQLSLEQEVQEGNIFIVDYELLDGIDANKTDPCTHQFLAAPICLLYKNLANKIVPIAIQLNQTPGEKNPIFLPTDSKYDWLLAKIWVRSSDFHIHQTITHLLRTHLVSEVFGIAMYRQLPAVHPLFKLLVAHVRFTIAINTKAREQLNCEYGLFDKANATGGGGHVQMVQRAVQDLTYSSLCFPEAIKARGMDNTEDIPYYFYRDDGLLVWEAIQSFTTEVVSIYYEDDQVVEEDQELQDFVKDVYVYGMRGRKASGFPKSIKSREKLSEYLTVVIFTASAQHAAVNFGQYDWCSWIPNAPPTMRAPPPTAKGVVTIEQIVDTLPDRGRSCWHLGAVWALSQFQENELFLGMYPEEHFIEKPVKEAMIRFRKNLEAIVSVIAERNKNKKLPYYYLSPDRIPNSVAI

[2] = tested on: 5-lipoxygenase and LTA4 synthetase; experiment: Di-HETE / LTB4 production by high speed supernatant of RBL-1 cells; type: biochemical
Description: (§1) For in vitro experiments, compounds were dissolved at appropriate concentrations in ethanol or DMSO (dimethylsulfoxide) (final concentration≤1.0%) and then diluted to final concentrations using the buffers indicated in the text.
(§2) The activities of these enzymes in extracts of RBL-1 cells were assayed using the method of Jakschik and Lee, Nature, 287, 51-52 (1980). RBL-1 cells were obtained from the American Type Culture Collection (#CRL 1378) and were grown at 37° C. (5% CO2 in air) in spinner culture in MEM supplemented with 10% heat inactivated fetal calf serum. Harvested cells were washed with 50 mM sodium phosphate buffer, pH 7.0, containing 1 mM EDTA and 0.1% gelatin, resuspended in fresh buffer (5×10^7 cells/ml) and disrupted by nitrogen cavitation using the Parr bomb at 750 psi for 10 min. The broken cell extract was then centrifuged at 10,000× g for 20 minutes (min) and the supernatant centrifuged at 100,000 xIg for 60 min. Aliquots (0.25 mls) of the supernatant were preincubated with or without drugs for 10 min, after which 10 μl CaCl2 (50 mM) was added and the reaction was initiated with 2.5 μl of 2.5 mM arachidonic acid-1-^14 C (final concentration was 25 μM; specific activity 20,000 dpm/nmole). After incubation for 3 min at 37° C., the reaction was terminated by addition of 2 volumes (0.5 ml) ice cold acetone and the sample was allowed to deproteinize on ice for 10 min prior to centrifugation at 1,000× g for 10 min. The deproteinized supernatant was adjusted to pH 3.5 with 2N formic acid and extracted with 2 volumes of ice cold ethyl acetate. The extracted samples were dried under argon, redissolved in ethyl acetate and applied to Whatman LK5D thin layer chromatography (TLC) plates which were developed using the A-9 solvent system [organic phase of ethyl acetate: 2,2,5-trimethylpentane:acetic acid: water (110:50:20:10)] described by Hamberg and Samuelsson, J. Biol. Chem., 241, 257-263 (1966). Arachidonic acid, 5-HETE, LTB4 and PGD2 were quantified with a Berthold LB 2832 autoscanner.
(§3) The 5-lipoxygenase and LTA4 synthetase activities were further studied under the following conditions. An additional centrifugation of the RBL-1 supernatant was run at 100,000× g for 60 min, to remove the particulate cyclooxygenase activity. Sample incubation was done under conditions similar to those described above, i.e., 2 mM CaCl2 and […] arachidonic acid-1-^14 C, however, with an incubation time of 5 min at 5° C. Under these conditions, only the 5-lipoxygenase pathway metabolites were detectable. The 5-HETE and di-HETEs were formed at a linear rate, and substantial amounts of the arachidonic acid-1-^14 C substrate were utilized.

5-Lipoxygenase [3] = target: T1, 5-Lipoxygenase; experiment: 5-HETE production by high speed supernatant of RBL-1 cells; type: biochemical
Description: as §1, §2, §3

[4] = tested on: LTB4 synthesis by peritoneal exudate cells; experiment: Ex vivo production of LTB4 from peritoneal exudate cells of drug-treated mice; type: in vivo, mouse; settings: for inhibition at 100 mg/kg: Mus musculus, po, 100 mg/kg p.o.
Description: In the following Examples where mice were used, they were male Balb/c mice (20-28 g), and where rats were used, they were male Lewis rats (180-210 g). All mice and rats were obtained from Charles River Breeding Laboratories, Kingston, N.Y. Within a single experiment, mice and rats were sex and age matched. Auranofin, phenidone, indomethacin, naproxen, and ibuprofen were each used as the free base. The compounds of Formula (I) were used either as the free base or in the appropriate salt form. Levamisole was used as the hydrochloride salt. […] Nordihydroguaiaretic acid (NDGA) was solubilized in dimethylacetamide and diluted with olive oil for subcutaneous administration. Carrageenan-induced peritoneal exudate cells from normal or drug-treated mice were washed and suspended in 2.2 ml of phosphate buffered saline. […] The cell preparation was centrifuged at 1500 rpm for 10 min and the supernatant was extracted using a C-18 silica column. […] A tetrahydrofuran, methanol, water, acetic acid (25:30:45: 0.1) solvent system, adjusted to pH 5.5 with ammonium hydroxide, was used at a flow rate of 0.7 ml/min. Cell derived LTB4 was quantified utilizing standard curves constructed with known amounts of synthetic LTB4.

[5] = tested on: LTC4 production by human monocytes; experiment: LTC4 production by human monocytes; type: cell-based; settings: Monocyte; A23187-stimulated human monocytes
Description: The compounds of Formula (I) were evaluated for their ability to inhibit the production of LTC4 by human monocytes according to the following assay. Human monocytes were prepared from whole blood supplied by the American Red Cross. The blood was fractinated by a two-step procedure employing sedimentation on Ficoll followed by sedimentation on Percoll. […] Non-adherent cells were removed by washing. […] When drugs were evaluated, they were added to the cells 30 minutes prior to the A23187. Supernatants were collected, […] by centrifugation and stored frozed at -20° C. until assay. The LTC4 content was determined by using a New England Nuclear Leukotriene C-4 (^3 H) RIA Kit as per instructions.

| 5-HETE (5-Lipoxygenase [3]; 1 μM) [nM/ml] | 5-HETE (5-Lipoxygenase [3]; 3.3 μM) [nM/ml] | 5-HETE (5-Lipoxygenase [3]; 10 μM) [nM/ml] | 5-HETE (5-Lipoxygenase [3]; 33 μM) [nM/ml] | 5-HETE (5-Lipoxygenase [3]; 100 μM) [nM/ml] | IC50 [5] [µM] | IC50 ([2]; soluble extract of RBL-1 cells containing only lipoxygenase activity, read-out: IC50, eicosanoid formation (LTB4 production)) [µM] | SMILES | IC50 5-Lipoxygenase (5-Lipoxygenase [1]) | Inhibition of eicosanoid formation / LTB4, result in words ([2]; indomethacin: concentrations up to 10^-4 M) | inhibition at 100 mg/kg ([4]; Experiment 1) [%] | inhibition at 100 mg/kg ([4]; Experiment 2) [%] | inhibition at 100 mg/kg ([4]; Experiment 3) [%] | LTB4 production ex vivo, result in words ([4]; mouse, in vivo) | Di-HETE ([2]; 1 μM) [nM/ml] | Di-HETE ([2]; 3.3 μM) [nM/ml] | Di-HETE ([2]; 10 μM) [nM/ml] | Di-HETE ([2]; 33 μM) [nM/ml] | Di-HETE ([2]; 100 μM) [nM/ml] |
| --- | --- | --- | --- | --- | --- | --- | --- | --- | --- | --- | --- | --- | --- | --- | --- | --- | --- | --- |
|  |  |  |  |  |  |  | COc1ccc2c(c1)c(CC(=O)O)c(C)n2C(=O)c1ccc(Cl)cc1 [Indomethacin] | Inactive @ 30 | inactive |  |  |  |  |  |  |  |  |  |
| 8.86 ± 0.31 | 7.63 ± 0.44 | 5.57 ± 0.35 | 3.36 ± 0.07 | 1.08 ± 0.13 | 1.8 | 7.5 | Fc1ccc(-c2nc3n(c2-c2ccncc2)CCS3)cc1 [Compound 1] |  |  | 90 | 23 | 100 | Impairment of LTB4 production | 1.56 ± 0.06 | 1.34 ± 0.12 | 0.88 ± 0.21 | 0.40 ± 0.08 | 0.03 ± 0.04 |
